Results on 32 compounds are retold here after PubChem BioAssay AID1259418 (Broad Institute, 2018).

The structures appear in SMILES notation. Values joined by “and” are separate entries in the source; they are usually repeats but may differ in a detail not shown here. Equal values may be shown once. Results filed as inconclusive are left out. Active and inactive are the calls of the source.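 Rule for the calls: active = fitted half-maximal concentration of signal decrease at or below twice the sample's top tested concentration; inconclusive = flat curve between -70 and -30 percent, or poor fit; inactive = flat within 30 percent, signal rise, or potency above limit.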 Where only a bound is given, the exact number is not on record here.

The target in this experiment is T. gondii ME49Luc in IFN-y HeLa, luciferase, 72 h. In words: inhibitors of Toxoplasma growth in IFN-γ-primed HeLa – cell-based, ME49Luc, luciferase, 72 h, dose response (AID 1259418).
`O=C(Cc1cccnc1)N1CC(=O)N2[C@H](CO)[C@@H](c3ccc(/C=C/c4ccccc4)cc3)[C@@H]2C1`: the AC50 (as a rule, the concentration at which the activity in the assay is half-maximal) is 19.3 µM.
Regarding `O=C(CC1N=C2c3ccccc3N=C(SCc3ccc(Cl)cc3)N2C1=O)NCc1cccs1` (configuration not stated), the AC50 was 29.4 µM.
The result for `CC(C)C#Cc1ccc([C@H]2[C@@H](C#N)N(C(=O)c3cccc(F)c3)[C@H]2CO)cc1` reads > 39 µM (inactive); that for `COc1ccc(CNC(=O)CC2N=C3c4ccccc4N=C(SCc4ccc(C)cc4)N3C2=O)cc1` (configuration not stated), 19.4 µM; that for `O=C(CCCCCn1c(=S)[nH]c2ccccc2c1=O)N1CCC(O)(c2cccc(C(F)(F)F)c2)CC1`, 26.9 µM.
The result for `COc1cc([C@@H]2c3cc4c(cc3C(OC3O[C@@H]5COC(C)O[C@H]5[C@H](O)[C@H]3O)C3COC(=O)[C@@H]32)OCO4)cc(OC)c1O` (some centres not stated) reads > 39 µM (inactive); that for `O=C(Nc1ccccc1F)N1CCCCN2[C@@H](CO)[C@@H](c3ccc(/C=C/c4ccccc4)cc3)[C@@H]2C1`, 22 µM.
Under `COc1ccccc1NC(=O)Nc1ccc(-c2nc(-c3ccc(C)cc3C)co2)cc1` stands 31.9 µM; under `N#C[C@H]1[C@H](c2ccc(-c3cccc(F)c3)cc2)[C@H](CO)N1C(=O)NC1CCCC1`, 18.9 µM; under `CCCNC(=O)N1CC(=O)N2[C@@H](CO)[C@@H](c3ccc(C#Cc4cccc(OC)c4)cc3)[C@@H]2C1`, 19.2 µM.
Turning to `O=C(C1CCCCC1)N1C[C@@H]2N[C@H](C1)C2c1ccc(-c2ccccc2F)cc1` (some centres not stated), the AC50 is 16.7 µM.
For the compound `Cc1nc(OCC(=O)Nc2ccc(Br)cc2F)c2ccccc2n1`, the half-maximal activity concentration (AC50) is 21 µM.
For the compound `Cc1ccccc1CN1C[C@@H]2C[C@H](C(=O)Nc3ccccc3)[C@@H](C1)O2`, the AC50 was 10.5 µM.
As for `CCOc1ccc(CC(=O)N2CCC3(CC2)Nc2cc(F)ccc2-n2cccc23)cc1OCC`, the AC50 is > 39 µM (inactive).
The result for `C[C@H](CO)N1C[C@H](C)[C@H](CN(C)Cc2ccc(Cl)c(Cl)c2)Oc2c(NS(=O)(=O)c3ccc(F)cc3)cccc2C1=O` reads 20.9 µM; that for `O=C(Cc1ccncc1)N1C[C@@H]2N[C@H](C1)C2c1ccc(/C=C/c2ccccc2)cc1` (some centres not stated), 20.9 µM; that for `COc1cccc(-c2ccc(C3[C@@H]4CN(S(=O)(=O)Cc5ccccc5)C[C@H]3N4)cc2)c1` (some centres not stated), 12.3 µM and 15.7 µM.
As to `CC(C)CCN1Cc2c(C(=O)NC3CCCCC3)ncn2-c2ccccc2S1(=O)=O`, the AC50 is 20.6 µM.
The result for `COc1ccccc1CNC1=NCCNC12CCN(S(=O)(=O)c1ccc(Cl)s1)CC2` reads 17 µM; that for `COc1ccc(NC(=O)CN2CCC3(CC2)N=C(c2cccc(C)c2)C(=O)N3)c(OC)c1`, 29.4 µM.
The result for `COc1ccc(S(=O)(=O)N2CCCCN3[C@H](CO)[C@H](c4ccc(C#CCC(C)C)cc4)[C@H]3C2)cc1` reads 5.52 µM.
`O=C(NCCc1csc(-c2ccccc2)n1)[C@H]1CCCN1C(=O)Cc1ccc(Cl)cc1`: the AC50 was > 39 µM (inactive).
Under `Clc1ccc(-c2nc(NCc3ccc4c(c3)OCO4)c3ccccc3n2)cc1` stands 11.3 µM.
Under `Cc1cccc(CNC2=NCCNC23CCN(S(=O)(=O)c2ccc(CC(C)C)cc2)CC3)c1` stands 8.2 µM.
With `COc1cccc(-c2ccc3c(c2)[C@@H]2[C@@H](CCN2C(=O)c2ccccc2F)[C@H](CO)N3C)c1`, the AC50 is 14.4 µM and 10.9 µM.
The result for `CCOC(=O)Cn1c(C)c(CN2CCCC2c2cc(C(C)C)no2)c2ccccc21` (configuration not stated) reads 15.5 µM; that for `CC(C)CNc1nc2c(cc1C(=O)NC(C)C)CCN(c1ccncn1)CC2`, 26.5 µM; that for `CC(C)CC(=O)N1CCC2(CC1)Nc1cc(F)ccc1-n1cccc12`, > 39 µM (inactive).
Consider `O=S(=O)(c1ccc2c(c1)CCCC2)N1CCC2(CC1)NCCN=C2NC1CCCCCC1`, for which the concentration at half-maximal activity (AC50) is 9.95 µM.
On to `Cc1ccccc1CN1C[C@@H]2c3nc(N4CCCC(C)C4)ncc3CS(=O)(=O)[C@H]2C1` (some centres not stated), for which the half-maximal activity concentration (AC50) was 24.5 µM and 4.74 µM.
Under `CN(C)C1CCN(Cc2cccc(C#N)c2)C(C(=O)O)C1` (configuration not stated) stands 9.32 µM; under `Cc1ccc(CNC2=NCCNC23CCN(S(=O)(=O)c2cc(C)cc(C)c2)CC3)cc1`, 23.4 µM.
